Tests used:
Test in all cases: relative viability (nuclei count vs DMSO), 5 days (fraction); higher = more cells survive
NCI-H522 = system: NCI-H522
Summary of the method: (§1)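 A single step with final 0.05% Triton X-100, 1% formaldehyde and 1 ug/ml Hoechst fixed the cells and stained nuclei 5 days after treatment. Lung cancer cell lines in 1536-well plates had been treated by pin tool the day after seeding with one drug alone or a fixed anchor-drug dose plus five library-drug doses (not always all listed) in √10 steps, and nuclei were counted on 4× images. Relative viability is the ratio of nuclei in treated wells to nuclei in vehicle wells, taken as the median of duplicate plates.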

NCI-H2342 = system: NCI-H2342
Summary of the method: as §1

NCI-H1563 = system: NCI-H1563
Summary of the method: as §1

SW 900 = system: SW 900
Summary of the method: as §1

NCI-H1623 = system: NCI-H1623
Summary of the method: as §1

NCI-H1648 = system: NCI-H1648
Summary of the method: as §1

NCI-H1703 = system: NCI-H1703
Summary of the method: as §1

A549 = system: A549
Summary of the method: as §1

IA-LM = system: IA-LM
Summary of the method: as §1

## Cc1cnc(-c2cnc(NCCNc3ccc(C#N)cn3)nc2-c2ccc(Cl)cc2Cl)[nH]1 + CCNC(=O)c1noc(-c2cc(C(C)C)c(O)cc2O)c1-c1ccc(CN2CCOCC2)cc1 [Luminespib] (partner 0.01 µM)
NCI-H522; first compound 0.08 µM
  relative viability: 1.14
NCI-H522; first compound 0.253 µM
  relative viability: 1.02
NCI-H522; first compound 0.8 µM
  relative viability: 0.99
NCI-H522; first compound 2.53 µM
  relative viability: 1.31
NCI-H2342; first compound 0.08 µM
  relative viability: 0.825
NCI-H2342; first compound 0.253 µM
  relative viability: 0.654
NCI-H2342; first compound 0.8 µM
  relative viability: 0.694
NCI-H2342; first compound 2.53 µM
  relative viability: 0.584
NCI-H1563; first compound 0.08 µM
  relative viability: 0.473
NCI-H1563; first compound 0.253 µM
  relative viability: 0.535
NCI-H1563; first compound 0.8 µM
  relative viability: 0.499
NCI-H1563; first compound 2.53 µM
  relative viability: 0.439
SW 900; first compound 0.08 µM
  relative viability: 0.196
SW 900; first compound 0.253 µM
  relative viability: 0.168
SW 900; first compound 0.8 µM
  relative viability: 0.206
SW 900; first compound 2.53 µM
  relative viability: 0.203
NCI-H1623; first compound 0.08 µM
  relative viability: 0.594
NCI-H1623; first compound 0.253 µM
  relative viability: 0.622
NCI-H1623; first compound 0.8 µM
  relative viability: 0.542
NCI-H1623; first compound 2.53 µM
  relative viability: 0.507

## Cc1cnc(-c2cnc(NCCNc3ccc(C#N)cn3)nc2-c2ccc(Cl)cc2Cl)[nH]1 + Cc1nc(Nc2ncc(C(=O)Nc3c(C)cccc3Cl)s2)cc(N2CCN(CCO)CC2)n1 [Dasatinib] (partner 0.075 µM)
NCI-H522; first compound 0.08 µM
  relative viability: 0.845
NCI-H522; first compound 0.253 µM
  relative viability: 0.996
NCI-H522; first compound 0.8 µM
  relative viability: 0.737
NCI-H522; first compound 2.53 µM
  relative viability: 0.844
NCI-H2342; first compound 0.08 µM
  relative viability: 0.325
NCI-H2342; first compound 0.253 µM
  relative viability: 0.321
NCI-H2342; first compound 0.8 µM
  relative viability: 0.301
NCI-H2342; first compound 2.53 µM
  relative viability: 0.278
NCI-H1563; first compound 0.08 µM
  relative viability: 0.439
NCI-H1563; first compound 0.253 µM
  relative viability: 0.471
NCI-H1563; first compound 0.8 µM
  relative viability: 0.51
NCI-H1563; first compound 2.53 µM
  relative viability: 0.429
SW 900; first compound 0.08 µM
  relative viability: 0.64
SW 900; first compound 0.253 µM
  relative viability: 0.425
SW 900; first compound 0.8 µM
  relative viability: 0.343
SW 900; first compound 2.53 µM
  relative viability: 0.404
NCI-H1623; first compound 0.08 µM
  relative viability: 0.5
NCI-H1623; first compound 0.253 µM
  relative viability: 0.536
NCI-H1623; first compound 0.8 µM
  relative viability: 0.472
NCI-H1623; first compound 2.53 µM
  relative viability: 0.516

## Cc1cnc(-c2cnc(NCCNc3ccc(C#N)cn3)nc2-c2ccc(Cl)cc2Cl)[nH]1 + NC(=O)Nc1cc(-c2cccc(F)c2)sc1C(=O)N[C@H]1CCCNC1 [AZD7762] (partner 0.2 µM)
NCI-H522; first compound 0.08 µM
  relative viability: 0.868
NCI-H522; first compound 0.253 µM
  relative viability: 0.798
NCI-H522; first compound 0.8 µM
  relative viability: 0.768
NCI-H522; first compound 2.53 µM
  relative viability: 0.789
NCI-H1648; first compound 0.08 µM
  relative viability: 0.542
NCI-H1648; first compound 0.253 µM
  relative viability: 0.579
NCI-H1648; first compound 0.8 µM
  relative viability: 0.643
NCI-H1648; first compound 2.53 µM
  relative viability: 0.624
NCI-H2342; first compound 0.08 µM
  relative viability: 0.516
NCI-H2342; first compound 0.253 µM
  relative viability: 0.473
NCI-H2342; first compound 0.8 µM
  relative viability: 0.484
NCI-H2342; first compound 2.53 µM
  relative viability: 0.46
NCI-H1703; first compound 0.08 µM
  relative viability: 0.14
NCI-H1703; first compound 0.253 µM
  relative viability: 0.128
NCI-H1703; first compound 2.53 µM
  relative viability: 0.13
SW 900; first compound 0.08 µM
  relative viability: 0.736
SW 900; first compound 0.253 µM
  relative viability: 0.548
SW 900; first compound 0.8 µM
  relative viability: 0.507
SW 900; first compound 2.53 µM
  relative viability: 0.452

## Cc1cnc(-c2cnc(NCCNc3ccc(C#N)cn3)nc2-c2ccc(Cl)cc2Cl)[nH]1 + Nc1ncn([C@H]2C[C@H](O)[C@@H](CO)O2)c(=O)n1 [Decitabine] (partner 2 µM)
NCI-H522; first compound 0.08 µM
  relative viability: 0.779
NCI-H522; first compound 0.253 µM
  relative viability: 0.68
NCI-H522; first compound 0.8 µM
  relative viability: 0.557
NCI-H522; first compound 2.53 µM
  relative viability: 0.63
NCI-H1648; first compound 0.08 µM
  relative viability: 0.444
NCI-H1648; first compound 0.253 µM
  relative viability: 0.453
NCI-H1648; first compound 0.8 µM
  relative viability: 0.554
NCI-H1648; first compound 2.53 µM
  relative viability: 0.541
NCI-H2342; first compound 0.08 µM
  relative viability: 0.727
NCI-H2342; first compound 0.253 µM
  relative viability: 0.548
NCI-H2342; first compound 0.8 µM
  relative viability: 0.671
NCI-H2342; first compound 2.53 µM
  relative viability: 0.66
SW 900; first compound 0.08 µM
  relative viability: 0.523
SW 900; first compound 0.253 µM
  relative viability: 0.436
SW 900; first compound 0.8 µM
  relative viability: 0.442
SW 900; first compound 2.53 µM
  relative viability: 0.393
A549; first compound 0.08 µM
  relative viability: 0.257
A549; first compound 0.253 µM
  relative viability: 0.254
A549; first compound 0.8 µM
  relative viability: 0.262
A549; first compound 2.53 µM
  relative viability: 0.316

## Cc1cnc(-c2cnc(NCCNc3ccc(C#N)cn3)nc2-c2ccc(Cl)cc2Cl)[nH]1 + O=C(CCCCCCC(=O)Nc1ccccc1)NO [Vorinostat] (partner 1 µM)
NCI-H522; first compound 0.08 µM
  relative viability: 1.01
NCI-H522; first compound 0.253 µM
  relative viability: 0.947
NCI-H522; first compound 0.8 µM
  relative viability: 0.958
NCI-H522; first compound 2.53 µM
  relative viability: 0.842
NCI-H1648; first compound 0.08 µM
  relative viability: 0.718
NCI-H1648; first compound 0.253 µM
  relative viability: 0.516
NCI-H1648; first compound 0.8 µM
  relative viability: 0.241
NCI-H1648; first compound 2.53 µM
  relative viability: 0.327
NCI-H2342; first compound 0.08 µM
  relative viability: 0.753
NCI-H2342; first compound 0.253 µM
  relative viability: 0.685
NCI-H2342; first compound 0.8 µM
  relative viability: 0.838
NCI-H2342; first compound 2.53 µM
  relative viability: 0.648
IA-LM; first compound 0.08 µM
  relative viability: 1.16
IA-LM; first compound 0.8 µM
  relative viability: 0.973
IA-LM; first compound 2.53 µM
  relative viability: 0.888
SW 900; first compound 0.08 µM
  relative viability: 0.381
SW 900; first compound 0.253 µM
  relative viability: 0.49
SW 900; first compound 0.8 µM
  relative viability: 0.519
SW 900; first compound 2.53 µM
  relative viability: 0.472
